Reference: ChEMBL document CHEMBL1165918, “Synthesis and biological activity of N-aroyl-tetrahydro-gamma-carbolines” (Bioorg Med Chem, 2010)

Experiments:
[1] = system: PC-3; assay: Growth inhibition of human PC3 cells at 10 uM after 72 hrs by MTT assay; type: functional; conditions: PC-3, 72 h, read-out: GI
[2] = system: MCF7; assay: Growth inhibition of human MCF7 cells at 10 uM after 72 hrs by MTT assay; type: functional; conditions: MCF7, 72 h, read-out: GI
[3] = system: L1210; assay: Cytotoxicity against mouse L1210 cells after 72 hrs by MTT assay; type: functional, cell-based; conditions: L1210, 72 h
[4] = molecular target: T1, Polyunsaturated fatty acid 5-lipoxygenase (Homo sapiens) (UniProt P09917); type: tissue-based; conditions: Blood, 10 uM
T1 sequence (whole entry): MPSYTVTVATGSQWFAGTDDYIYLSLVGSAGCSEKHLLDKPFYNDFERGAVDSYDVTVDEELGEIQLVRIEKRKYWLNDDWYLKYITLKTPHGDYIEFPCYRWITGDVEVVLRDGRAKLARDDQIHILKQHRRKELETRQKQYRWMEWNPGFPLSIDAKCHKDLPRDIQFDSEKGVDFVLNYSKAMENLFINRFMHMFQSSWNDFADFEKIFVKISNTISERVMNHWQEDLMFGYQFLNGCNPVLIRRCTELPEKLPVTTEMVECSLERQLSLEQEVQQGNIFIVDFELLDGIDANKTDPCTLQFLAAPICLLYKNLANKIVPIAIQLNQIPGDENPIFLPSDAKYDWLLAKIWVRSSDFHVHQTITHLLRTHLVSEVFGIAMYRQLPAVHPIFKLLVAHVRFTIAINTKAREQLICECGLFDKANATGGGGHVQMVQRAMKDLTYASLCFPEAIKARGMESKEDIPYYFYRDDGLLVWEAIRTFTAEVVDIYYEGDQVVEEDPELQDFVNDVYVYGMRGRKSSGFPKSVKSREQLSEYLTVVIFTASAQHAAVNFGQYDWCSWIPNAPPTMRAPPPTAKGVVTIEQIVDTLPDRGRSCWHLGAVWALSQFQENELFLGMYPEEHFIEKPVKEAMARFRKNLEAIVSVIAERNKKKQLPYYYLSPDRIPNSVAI

[5] = molecular target: T2, Polyunsaturated fatty acid 5-lipoxygenase (Homo sapiens, UniProt P09917)
T2 sequence (P09917 whole entry): T1 sequence (whole entry)

[6] = molecular target: T3, Prostaglandin G/H synthase 1 (Homo sapiens, UniProt P23219); type: tissue-based, Blood
T3 sequence (P23219 whole entry): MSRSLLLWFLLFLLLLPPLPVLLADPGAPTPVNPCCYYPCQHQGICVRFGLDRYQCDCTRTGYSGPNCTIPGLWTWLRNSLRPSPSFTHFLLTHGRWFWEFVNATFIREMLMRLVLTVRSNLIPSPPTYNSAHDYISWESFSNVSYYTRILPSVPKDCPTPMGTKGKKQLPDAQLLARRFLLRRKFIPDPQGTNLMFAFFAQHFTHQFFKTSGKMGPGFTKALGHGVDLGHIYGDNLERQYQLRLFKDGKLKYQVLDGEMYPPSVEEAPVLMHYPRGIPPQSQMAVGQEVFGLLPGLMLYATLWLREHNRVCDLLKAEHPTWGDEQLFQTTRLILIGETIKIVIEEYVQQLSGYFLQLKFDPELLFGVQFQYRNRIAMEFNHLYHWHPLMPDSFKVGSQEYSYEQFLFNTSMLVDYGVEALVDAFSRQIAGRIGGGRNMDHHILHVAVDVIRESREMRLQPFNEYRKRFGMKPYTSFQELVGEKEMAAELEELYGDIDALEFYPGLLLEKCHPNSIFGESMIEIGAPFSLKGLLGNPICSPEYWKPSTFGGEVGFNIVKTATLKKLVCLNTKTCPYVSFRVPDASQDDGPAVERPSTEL
Description: Inhibition of COX1 in human whole blood assessed as inhibition of 12-hydroxyheptadecatrienoic acid production by HPLC method

[7] = system: L1210; assay: Growth inhibition of mouse L1210 cells at 10 uM after 72 hrs by MTT assay; type: functional; conditions: L1210, 72 h, read-out: GI
[8] = molecular target: T2, Polyunsaturated fatty acid 5-lipoxygenase; remark: listed apart in the source
[9] = system: PC-3; assay: cells; conditions: Homo sapiens, PC-3, 72 h
Description: Cytotoxicity against human PC3 cells after 72 hrs by MTT assay

[10] = molecular target: T2, Polyunsaturated fatty acid 5-lipoxygenase; assay: Inhibition of 5-lipoxygenase in human whole blood; type: tissue-based
[11] = molecular target: T3, Prostaglandin G/H synthase 1; assay: Inhibition of COX1 in human whole blood; type: tissue-based
[12] = species: Homo sapiens; assay: Selectivity ratio of IC50 for COX2 in human whole blood to IC50 for COX1 in human whole blood; type: tissue-based
[13] = molecular target: T3, Prostaglandin G/H synthase 1; assay: Inhibition of COX1 in human whole blood assessed as inhibition of 12-hydroxyheptadecatrienoic acid production at 10 uM by HPLC method; type: tissue-based
[14] = molecular target: T4, Prostaglandin G/H synthase 2 (Homo sapiens) (UniProt P35354); assay: Inhibition of COX2 in human whole blood assessed as inhibition of 12-hydroxyheptadecatrienoic acid production at 10 uM by HPLC method; type: tissue-based
T4 sequence (whole entry): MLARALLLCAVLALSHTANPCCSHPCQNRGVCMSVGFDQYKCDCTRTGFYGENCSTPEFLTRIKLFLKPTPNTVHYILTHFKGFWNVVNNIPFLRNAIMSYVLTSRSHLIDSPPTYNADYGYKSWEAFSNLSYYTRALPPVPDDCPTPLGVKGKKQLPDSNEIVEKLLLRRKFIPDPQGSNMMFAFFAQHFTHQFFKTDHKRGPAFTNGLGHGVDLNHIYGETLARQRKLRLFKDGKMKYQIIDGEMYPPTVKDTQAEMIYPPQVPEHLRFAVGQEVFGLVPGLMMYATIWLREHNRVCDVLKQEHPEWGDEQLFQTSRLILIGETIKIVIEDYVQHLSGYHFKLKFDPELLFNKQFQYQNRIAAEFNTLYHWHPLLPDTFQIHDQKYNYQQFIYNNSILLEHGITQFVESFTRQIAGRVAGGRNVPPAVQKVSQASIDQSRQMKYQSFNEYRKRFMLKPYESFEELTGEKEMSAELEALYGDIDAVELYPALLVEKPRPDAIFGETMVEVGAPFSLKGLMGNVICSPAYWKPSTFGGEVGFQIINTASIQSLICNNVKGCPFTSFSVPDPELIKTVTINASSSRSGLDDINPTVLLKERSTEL

[15] = system: MCF7; assay: cells; conditions: Homo sapiens, MCF7, 72 h
Description: Cytotoxicity against human MCF7 cells after 72 hrs by MTT assay

| Compound | IC50 [5] | IC50 [6] | IC50 [8] | inhibition of growth at 10 µM [1] | inhibition of growth at 10 µM [2] | inhibition of growth at 10 µM [7] | further results |
| --- | --- | --- | --- | --- | --- | --- | --- |
| COc1ccc2c(c1)c1c(n2C(=O)c2ccc(S(=O)(=O)/N=C/N(C)C)cc2)CCN(CCCOc2cc(F)cc(C3(OC)CCOCC3)c2)C1 | > 10 µM |  |  | 42% | 21% |  | IC50 [3]: 6 µM; inhibition [4]: 81.4% |
| COC1(c2cc(F)cc(OCCCN3CCc4c(c5cc(S(C)(=O)=O)ccc5n4CCCOc4cc(F)cc(C5(OC)CCOCC5)c4)C3)c2)CCOCC1 |  |  |  |  | 36% |  | IC50 [3]: 3 µM |
| COC1(c2cc(F)cc(OCCCN3CCc4c(c5ccccc5n4C(=O)c4ccccc4)C3)c2)CCOCC1 | 206 µM | 18.2 µM | 92.9 µM | 6% | 30% | 24% |  |
| COc1ccc2c(c1)c1c(n2C(=O)c2ccccc2)CCNC1 |  | 6 µM |  | 0% | 0% | 32% |  |
| COc1ccc2c(c1)c1c(n2Cc2ccc(S(C)(=O)=O)cc2)CCN(CCCOc2cc(F)cc(C3(OC)CCOCC3)c2)C1 |  |  |  |  | 27% |  | IC50 [3]: 5 µM; IC50 [9]: 8 µM |
| COC1(c2cc(F)cc(OCc3cc(-c4ccccc4)n(-c4ccc(S(C)(=O)=O)cc4)n3)c2)CCOCC1 |  |  |  |  |  |  | IC50 [10]: 0.2 µM; IC50 [11]: > 10 µM |
| COC(=O)c1cc2cc(S(C)(=O)=O)ccc2n1Cc1ccc(Cl)cc1 |  |  |  |  |  |  | Ratio IC50 [12]: < 0.05; IC50 [11]: > 10 µM |
| COc1ccc2c(c1)c1c(n2C(=O)c2ccc(F)cc2)CCN(CCCOc2cc(F)cc(C3(OC)CCOCC3)c2)C1 | 59.9 µM |  | 58 µM | 0% | 37% | 44% | inhibition [13]: 71.6% |
| Cc1ccc(-c2cc(C(F)(F)F)nn2-c2ccc(S(N)(=O)=O)cc2)cc1 [CELECOXIB] |  |  |  |  |  |  | IC50 [3]: 44 µM; IC50 [15]: 50.2 µM |
| CS(=O)(=O)c1ccc2c(c1)c1c(n2C(=O)c2ccccc2)CCNC1 |  | 24.4 µM |  | 7% | 0% | 0% |  |

Second part, led by results:

| IC50 [5] | IC50 [6] | IC50 [8] | Compound | inhibition of growth at 10 µM [1] | inhibition of growth at 10 µM [2] | inhibition of growth at 10 µM [7] | further results |
| --- | --- | --- | --- | --- | --- | --- | --- |
| 55 µM | 36.7 µM | 45.4 µM | COc1ccc2c(c1)c1c(n2C(=O)c2c(Cl)cc(Cl)cc2Cl)CCN(CCCOc2cc(F)cc(C3(OC)CCOCC3)c2)C1 | 0% | 36% | 11% |  |
| 40.5 µM | 7.8 µM | 38 µM | COc1ccc2c(c1)c1c(n2C(=O)c2cccc(F)c2)CCN(CCCOc2cc(F)cc(C3(OC)CCOCC3)c2)C1 | 44% | 8% | 40% |  |
| 24.6 µM | 180 µM | 29.5 µM | COC1(c2cc(F)cc(OCCCN3CCc4c(c5cc(F)ccc5n4Cc4ccc(S(C)(=O)=O)cc4)C3)c2)CCOCC1 |  | 34% | 38% | IC50 [9]: 8 µM |
| 108 µM |  | 66.4 µM | COc1ccc2c(c1)c1c(n2C(=O)c2ccccc2)CCN(CCCOc2cc(F)cc(C3(OC)CCOCC3)c2)C1 | 20% | 18% | 20% | inhibition [13]: 84.3% |
| > 10 µM |  | 39.3 µM | COc1ccc2c(c1)c1c(n2C(=O)c2ccccc2F)CCN(CCCOc2cc(F)cc(C3(OC)CCOCC3)c2)C1 | 15% | 21% | 45% | inhibition [13]: 83.5% |
|  | 24 µM |  | COC1(c2cc(F)cc(OCCCN3CCc4c(c5cc(S(C)(=O)=O)ccc5n4C(=O)c4ccccc4)C3)c2)CCOCC1 | 37% | 15% | 38% | inhibition [14]: 8.4% |
| 119 µM | 7.4 µM | 59.3 µM | COc1ccc2c(c1)c1c(n2C(=O)c2ccc(Cl)cc2)CCN(CCCOc2cc(F)cc(C3(OC)CCOCC3)c2)C1 | 9% |  |  | IC50 [3]: 8 µM; IC50 [15]: 8 µM |
| 62 µM | 16.5 µM | 47.4 µM | COc1ccc2c(c1)c1c(n2C(=O)c2ccc(Br)cc2)CCN(CCCOc2cc(F)cc(C3(OC)CCOCC3)c2)C1 | 0% | 39% | 42% |  |
